The text below walks through data of US9238821B2, “Metabolic engineering for plant disease resistance” (The Samuel Roberts Noble Foundation, Inc., priority 2009, dated 2016).

Several values for one entry are separate records, joined by “and”; a condition that tells them apart may be missing. Equal entries are not always repeated. Entries after “also recorded” stand apart in the source; their conditions may differ.

The subject of the assay is P. omnivora. The assay is described as follows: Fungal inhibition assay against P. omnivora on PDA medium. It counts as cell-based, Phymatotrichopsis omnivora. The settings on record: for Fungal growth score (arbitrary scale 0 to 5): 120 h, 0 = no fungal growth (best inhibition), 5 = best fungal growth (no inhibition), two replicate columns; for in vitro growth inhibitory activity against P. omnivora (in words): PDA medium, 0.1 mM and 0.5 mM.

For `O=c1cc(-c2ccc(O)cc2)oc2cc(O)ccc12` [7,4′-dihydroxyflavone], the “in vitro growth inhibitory activity against P. omnivora (in words)” value was “strongly inhibited; also recorded: inhibited; also recorded: substantial in vitro growth inhibitory activity; also recorded: inhibit growth”. In addition, the “Fungal growth score (arbitrary scale 0 to 5)” value (“Fungal growth score” for short) (compound 0.1 mM in PDA medium) was 3. For the same compound, where the note is “compound 0.5 mM in PDA medium”, the “Fungal growth score” value is 0. Moreover, the “in vitro growth inhibitory activity against P. omnivora (in words)” value (listed as 7, 4′-dihydroxyflavone) is listed as “substantial in vitro growth inhibitory activity”.

Take medicarpin: the “in vitro growth inhibitory activity against P. omnivora (in words)” value is “strong inhibition; also recorded: inhibited; also recorded: substantial in vitro growth inhibitory activity; also recorded: inhibit growth”. For the same compound, the “Fungal growth score” value (compound 0.1 mM in PDA medium) was 2 and 1. Also, where the note is “compound 0.5 mM in PDA medium”, the “Fungal growth score” value was 1 and 0.

For `O=C1C[C@@H](c2ccc(O)cc2)Oc2cc(O)ccc21` [liquiritigenin], the “in vitro growth inhibitory activity against P. omnivora (in words)” value was “no inhibition activity”. The “Fungal growth score” value (compound 0.1 mM in PDA medium) is given as 5. The “Fungal growth score” value (compound 0.5 mM in PDA medium) amounted to 5.

Regarding `O=C(/C=C/c1ccc(O)cc1)c1ccc(O)cc1O` [isoliquiritigenin], the “Fungal growth score” value is, setting by setting: (compound 0.1 mM in PDA medium) 4; (compound 0.5 mM in PDA medium) 4.

Regarding `Oc1ccccc1O` [catechol, reference compound], the “Fungal growth score” value runs as follows: (compound 0.1 mM in PDA medium) 2; (compound 0.5 mM in PDA medium) 0.

As for `COc1ccc(-c2coc3cc(O)ccc3c2=O)cc1` [formononetin, reference compound], the “in vitro growth inhibitory activity against P. omnivora (in words)” value is listed as “not active”. Further, the “Fungal growth score” value (compound 0.1 mM in PDA medium) is 4. Also, the “Fungal growth score” value (compound 0.5 mM in PDA medium) was 4.

On to `O=C1C[C@@H](c2ccc(O)cc2)Oc2cc(O)cc(O)c21` [naringenin], for which the “in vitro growth inhibitory activity against P. omnivora (in words)” value is “no inhibition activity”. Further, where the note is “compound 0.1 mM in PDA medium”, the “Fungal growth score” value was 4 and 5. For the same compound, the “Fungal growth score” value (compound 0.5 mM in PDA medium) was 3 and 5.

Take `O=c1cc(-c2ccc(O)cc2)oc2cc(O)c(O)cc12` [6,7,4′-trihydoxyflavone]: the “in vitro growth inhibitory activity against P. omnivora (in words)” value is recorded as “not active”.

For `O=c1cc(-c2ccc(O)cc2)oc2cc(O)cc(O)c12` [apigenin], the “in vitro growth inhibitory activity against P. omnivora (in words)” value was “not in vitro active”. Further, the “Fungal growth score” value (compound 0.1 mM in PDA medium) is recorded as 5. Moreover, the “Fungal growth score” value (compound 0.5 mM in PDA medium) turned out to be 5.
